Reference: US5716949A, “Heterocyclic compounds” (Novo Nordisk A/S, priority 1995, dated 1998)
Where a name gives a salt, the structure may show the parent alone.

Test: Inhibition of formalin induced pain response in mice
Type: in vivo, mouse (NMRI female mice)
Conditions: 0.1 mg/kg, 1% formalin into left hind paw
Method: Compounds of formula I may be used to treat all painful, hyperalgesic and/or inflammatory conditions in which C-fibers play a pathophysiological role by eliciting neurogenic pain or inflammation, i.e.: Formalin induced pain or paw oedema […] About 20 g NMRI female mice were injected […] 1% formalin into the left hind paw. The animals were then placed on a heated (31° C.) table, and the pain response was scored. After 1 h they were killed and bled. Left and right hind paws were removed and the weight difference between the paws was used as indication of the oedema response of the formalin injected paw. Values for inhibition of formalin induced pain response for some representative compounds are recorded in table 1.

In the case of `Cl.O=C1Cc2ccccc2N(CCCN2CCC[C@@H](C(=O)O)C2)c2ccccc21` [Example 1, (R)-1-(3-(10-Oxo-10,11-dihydro-5H-dibenz[b,f]azepin-5-yl)-1-propyl)-3-piperidinecarboxylic acid hydrochloride], the “% Pain inhibition (inhibition of formalin induced pain response)” value is reported as 21%.
For `O=C(O)[C@@H]1CCCN(CCC=C2c3ccccc3CSc3ccccc32)C1` [Example 3, (R)-1-(3-(6,11-Dihydro-dibenz[b,e]thiepin-11-yl)-1-propylidene)-3-piperidinecarboxylic acid hydrochloride], the “% Pain inhibition (inhibition of formalin induced pain response)” value was 31%.
